Values joined by “and” are separate entries in the source; they are usually repeats but may differ in a detail not shown here. Equal entries are not always repeated.
Molecular target: T1, hTRPC3 (Homo sapiens, UniProt Q13507)
T1 construct: expressed in transfected cells
T1 sequence (Q13507 1-848 isoform Q13507-3): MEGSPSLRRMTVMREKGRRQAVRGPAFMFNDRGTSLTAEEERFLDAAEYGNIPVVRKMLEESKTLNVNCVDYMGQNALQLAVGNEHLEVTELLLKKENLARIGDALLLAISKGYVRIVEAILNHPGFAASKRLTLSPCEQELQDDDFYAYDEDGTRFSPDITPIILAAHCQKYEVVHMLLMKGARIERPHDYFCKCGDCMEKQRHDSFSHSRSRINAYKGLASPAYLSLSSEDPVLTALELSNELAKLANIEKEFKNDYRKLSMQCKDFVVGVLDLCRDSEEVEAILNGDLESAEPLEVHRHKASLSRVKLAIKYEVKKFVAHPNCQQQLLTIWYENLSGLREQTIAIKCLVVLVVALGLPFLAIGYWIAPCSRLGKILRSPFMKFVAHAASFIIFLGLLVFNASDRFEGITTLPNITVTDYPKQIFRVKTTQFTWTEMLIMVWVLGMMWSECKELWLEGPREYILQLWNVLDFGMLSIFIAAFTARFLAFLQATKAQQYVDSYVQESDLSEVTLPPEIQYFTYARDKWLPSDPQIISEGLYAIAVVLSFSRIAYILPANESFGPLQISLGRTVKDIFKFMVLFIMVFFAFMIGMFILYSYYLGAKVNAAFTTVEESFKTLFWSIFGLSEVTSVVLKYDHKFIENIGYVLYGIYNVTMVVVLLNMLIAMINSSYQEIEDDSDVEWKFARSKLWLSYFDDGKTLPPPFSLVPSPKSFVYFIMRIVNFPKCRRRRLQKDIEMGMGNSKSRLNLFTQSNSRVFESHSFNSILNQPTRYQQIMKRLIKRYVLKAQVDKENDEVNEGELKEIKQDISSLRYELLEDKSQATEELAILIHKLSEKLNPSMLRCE
Experiment: OAG-induced Ca2+ entry, fluo-4 fluorometric imaging plate reader, TRPC3 CHO cells
Format: cell-based
Conditions: for IC50: TRPC3 CHO cells, fluo-4, area under the curve, 10 min pre-incubation, read-out: IC50, inhibition of OAG-induced Ca2+ entry via TRPC3; for Hill slope n, inhibition of TRPC3-mediated Ca2+ entry: fit to Hill model
Procedure: hTRPC3 (GenBank accession number NM_003305) was stably expressed in chinese hamster ovary (CHO) cells using a proprietary high expression vector (Steinbeis -Transferzentrum für Angewandte Biologische Chemie, Mannheim, Germany). Cells grown to an almost confluent monolayer on black poly-D-lysine coated 96-well plates (Greiner, Frickenhausen, Germany) were washed with standard extracellular solution (140 mM NaCl, 1 mM MgCl2, 5.4 mM KCl, 2 mM CaCl2, 10 mM HEPES, 10 mM glucose, pH 7.35) and stained (30 min, room temperature) with dye solution (2 μM fluo-4 AM, 0.02% pluronic F127, 0.1% bovine serum albumin in standard extracellular solution). Cells were washed and either incubated with standard extracellular solution only or with different concentrations of test compounds for 10 min. Fluo-4 fluorescence was excited at 488 nm with an argon laser and measured using a fluorometric imaging plate reader (Molecular Devices, Sunnyvale, USA). All fluorometric measurements were performed at room temperature. […] Baseline fluorescence in non-OAG-stimulated cells and OAG-stimulated Ca^2+ influx into control cells not treated with inhibitors were defined as 0% and 100% influx, respectively. For statistical analysis, analysis of variance was performed with Origin 6.0 software (Microcal Software Inc., Northampton, USA). […] Averaged data is expressed as means ± SEM.

| SMILES | IC50 | Hill slope n, inhibition of TRPC3-mediated Ca2+ entry | Effect on TRPC3-mediated Ca2+ entry (30 µM pre-incubation, OAG-induced) |
| --- | --- | --- | --- |
| CC(=O)[C@H]1CC[C@H]2[C@@H]3CCC4=CC(=O)CC[C@]4(C)[C@H]3CC[C@]12C [progesterone] | 12.4 µM | 3.6 |  |
| C#C[C@]1(OC(C)=O)CC[C@H]2[C@@H]3CCC4=CC(=NO)CC[C@@H]4[C@H]3CC[C@@]21CC (mixture of isomers) [norgestimate] | 3 to 5 µM and 3 µM | 1.67 | significantly reduced |
